Results: patent publication US11986471B2, “Compounds and methods of use” (Tango Therapeutics, Inc., priority 2018, dated 2024)

Legend:
PRMT5 [1] = target: T1, PRMT5 (Homo sapiens, UniProt O14744); experiment: PRMT5 IC50 assay in the presence of SAM as cofactor; format: biochemical
T1 construct: purchased Viva (custom protein)
Summary of the method: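 Potency against PRMT5 is compared across cofactor states, where IC50 equals Ki×1.5 with SAM present and Ki×13.5 with MTA present.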

PRMT5 [2] = target: T1, PRMT5; experiment: PRMT5 IC50 assay with no cofactor; format: biochemical
Summary of the method: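 Human PRMT5 inhibition, IC50 in μM; cofactor varied (SAM / MTA / none).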

PRMT5 [3] = target: T1, PRMT5; experiment: PRMT5 IC50 assay in the presence of MTA as cofactor; format: biochemical; settings: for IC50: PRMT5, MTA as cofactor
Summary of the method: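 MTA-dependent versus SAM-dependent inhibition of human PRMT5 was assessed by IC50; conversion factors of 13.5 and 1.5 gave the corresponding Ki.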

HAP1 MTAP-intact = experiment: SDMA in-cell western assay, HAP1 MTAP-intact cell line; format: cell-based; settings: Homo sapiens
Summary of the method: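 HAP1 isogenic pair: endogenous MTAP vs MTAP-null. Readout SDMA by in-cell western; IC50 per line. Ratio ≥3 fold = MTAP-selective.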

HAP1 MTAP-deleted = experiment: SDMA in-cell western assay, HAP1 MTAP-deleted cell line; format: cell-based; settings: for IC50: Homo sapiens, HAP1 MTAP-deleted cell line; for MTAP Intact/Deleted Ratio: IC50 ratio HAP1 MTAP-intact / HAP1 MTAP-deleted
Summary of the method: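 IC50 from SDMA in-cell western; HAP1 line lacking MTAP (null), paired isogenically with MTAP-intact HAP1 expressing endogenous MTAP.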

[4] = ratio between Ki in the presence of SAM and Ki in the presence of MTA
[5] = ratio between the Ki in the presence of SAM and the Ki in the presence of MTA

T1 sequence (O14744 whole entry): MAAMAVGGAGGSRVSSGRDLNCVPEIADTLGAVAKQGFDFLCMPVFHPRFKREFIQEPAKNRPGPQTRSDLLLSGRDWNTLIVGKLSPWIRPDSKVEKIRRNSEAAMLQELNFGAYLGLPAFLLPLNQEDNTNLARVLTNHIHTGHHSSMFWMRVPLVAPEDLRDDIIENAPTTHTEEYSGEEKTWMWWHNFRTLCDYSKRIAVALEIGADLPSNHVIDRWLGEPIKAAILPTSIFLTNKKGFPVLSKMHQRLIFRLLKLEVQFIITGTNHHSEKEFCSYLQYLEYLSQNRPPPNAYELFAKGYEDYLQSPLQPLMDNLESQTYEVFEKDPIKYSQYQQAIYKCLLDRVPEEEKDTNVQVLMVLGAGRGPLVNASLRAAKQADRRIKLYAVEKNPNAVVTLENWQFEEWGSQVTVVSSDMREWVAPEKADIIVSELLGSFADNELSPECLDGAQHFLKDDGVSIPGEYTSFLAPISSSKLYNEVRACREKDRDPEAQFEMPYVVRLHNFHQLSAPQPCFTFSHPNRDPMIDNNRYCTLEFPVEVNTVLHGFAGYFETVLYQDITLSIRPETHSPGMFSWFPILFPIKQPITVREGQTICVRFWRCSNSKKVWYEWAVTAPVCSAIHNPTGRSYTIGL
T1 sequence (Q9BQA1 whole entry partner): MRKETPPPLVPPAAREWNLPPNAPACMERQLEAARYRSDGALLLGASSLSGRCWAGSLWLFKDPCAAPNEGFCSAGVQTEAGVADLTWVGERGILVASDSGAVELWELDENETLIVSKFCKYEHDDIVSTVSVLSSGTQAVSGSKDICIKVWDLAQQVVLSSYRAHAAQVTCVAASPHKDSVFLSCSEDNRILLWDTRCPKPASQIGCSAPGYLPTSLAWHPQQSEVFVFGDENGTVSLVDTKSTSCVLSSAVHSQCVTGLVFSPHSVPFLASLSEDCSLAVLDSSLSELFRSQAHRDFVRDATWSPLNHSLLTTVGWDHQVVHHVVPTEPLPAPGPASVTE

IC50 (PRMT5 [1]) [nM]	IC50 (PRMT5 [2]; read-out: No Co-factor IC50) [nM]	IC50 (PRMT5 [3]) [nM]	IC50 (HAP1 MTAP-intact) [nM]	IC50 (HAP1 MTAP-deleted) [nM]	IC50 (PRMT5 [2]) [nM]	Compound	SAM/MTA Ratio (PRMT5 [3]; [4])	MTAP Intact/Deleted Ratio (HAP1 MTAP-deleted)	SAM/MTA Ratio (PRMT5 [3]; [5])
50 to 500	≥ 5000	50 to 500	≥ 10000	1000 to 10000	–	Cc1ncoc1COc1ccc2c(c1Cl)CCN(C[C@@H](O)CNC(=O)c1ccnc(NC3CCC3)c1)C2 [Compound 252, (S)—N-(3-(5-chloro-6-((4-methyloxazol-5-yl)methoxy)-3,4-dihydroisoquinolin-2(1H)-yl)-2-hydroxypropyl)-2-(cyclobutylamino)isonicotinamide]	A (a Ki ratio greater than or equal to 10 fold between the Ki in the presence of SAM and the Ki in the presence of MTA)	C* (an IC50 ratio of less than 3 fold between the IC50 in the HAP1 MTAP-intact cell line and the HAP1 MTAP-deleted cell line)	–
500 to 5000	≥ 5000	500 to 5000	≥ 10000	≥ 10000	–	Cc1c(OCc2cnco2)ccc2c1CCN(C[C@@H](O)CNC(=O)c1cc(NC3CCCC3)ncn1)C2 [Compound 393, 6-(cyclopentylamino)-N-[(2S)-2-hydroxy-3-{5-methyl-6-[(1,3-oxazol-5-yl)methoxy]-1,2,3,4-tetrahydroisoquinolin-2-yl}propyl]pyrimidine-4-carboxamide]	A (a Ki ratio greater than or equal to 10 fold between the Ki in the presence of SAM and the Ki in the presence of MTA)	C* (an IC50 ratio of less than 3 fold between the IC50 in the HAP1 MTAP-intact cell line and the HAP1 MTAP-deleted cell line)	–
50 to 500	–	50 to 500	1000 to 10000	1000 to 10000	500 to 5000	CCN1CCN(c2nc(NC3COC3)cc(C(=O)NC[C@H](O)CN3CCc4cc(OCc5ocnc5C)ccc4C3)n2)CC1 [Compound 544, 2-(4-ethylpiperazin-1-yl)-N-[(2S)-2-hydroxy-3-(6-[(4-methyl-1,3-oxazol-5-yl)methoxy]-1,2,3,4-tetrahydroisoquinolin-2-yl}propyl]-6-[(oxetan-3-yl)amino]pyrimidine-4-carboxamide]	–	B* (an IC50 ratio greater than or equal to 3 fold but lower than 10 fold between the IC50 in the HAP1 MTAP-intact cell line and the HAP1 MTAP-deleted cell line)	A (a Ki ratio greater than or equal to 10 fold between the Ki in the presence of SAM and the Ki in the presence of MTA)
50 to 500	500 to 5000	50 to 500	≥ 10000	≥ 10000	–	O=C(NC[C@H](O)CN1CCc2c(ccc(OCc3cnco3)c2Cl)C1)c1ccnc(NC2CCCC2)c1 [Compound 382, (S)—N-(3-(5-chloro-6-(oxazol-5-ylmethoxy)-3,4-dihydroisoquinolin-2(1H)-yl)-2-hydroxypropyl)-2-(cxclopentylamino)isonicotinamide]	A (a Ki ratio greater than or equal to 10 fold between the Ki in the presence of SAM and the Ki in the presence of MTA)	C* (an IC50 ratio of less than 3 fold between the IC50 in the HAP1 MTAP-intact cell line and the HAP1 MTAP-deleted cell line)	–
50 to 500	–	50 to 500	≥ 10000	1000 to 10000	500 to 5000	Cc1c(OCc2cnco2)ccc2c1CCN(C[C@@H](O)CNC(=O)c1ccnc(NC3CCN(C(=O)C4CC4)CC3)c1)C2 [Compound 484, (S)-2-((1-(cyclopropanecarbonyl)piperidin-4-yl)amino)-N-(2-hydroxy-3-(5-methyl-6-(oxazol-5-ylmethoxy)-3N-dihydroisoquinolin-2(1H)-yl)propyl)isonicotinamide]	–	B* (an IC50 ratio greater than or equal to 3 fold but lower than 10 fold between the IC50 in the HAP1 MTAP-intact cell line and the HAP1 MTAP-deleted cell line)	A (a Ki ratio greater than or equal to 10 fold between the Ki in the presence of SAM and the Ki in the presence of MTA)

The next lines start with the compound.

Compound	IC50 (PRMT5 [1]) [nM]	IC50 (PRMT5 [2]; read-out: No Co-factor IC50) [nM]	IC50 (PRMT5 [3]) [nM]	IC50 (HAP1 MTAP-intact) [nM]	IC50 (HAP1 MTAP-deleted) [nM]	IC50 (PRMT5 [2]) [nM]	SAM/MTA Ratio (PRMT5 [3]; [4])	MTAP Intact/Deleted Ratio (HAP1 MTAP-deleted)	SAM/MTA Ratio (PRMT5 [3]; [5])
CC(=O)N1CCC(Nc2cc(C(=O)NC[C@H](O)CN3CCc4c(ccc(OCc5cnco5)c4Cl)C3)ncn2)CC1 [Compound 241, (S)-6-((1-acetylpiperidin-4-yl)amino)-N-(3-(5-chloro-6-(oxazol-5-ylmethoxy)-3,4-dihydroisoquinolin-2(1H)-yl)-2-hydroxypropyl)pyrimidine-4-carboxamide]	50 to 500	500 to 5000	50 to 500	≥ 10000	1000 to 10000	–	A (a Ki ratio greater than or equal to 10 fold between the Ki in the presence of SAM and the Ki in the presence of MTA)	C* (an IC50 ratio of less than 3 fold between the IC50 in the HAP1 MTAP-intact cell line and the HAP1 MTAP-deleted cell line)	–
COCCN(C)c1cc(C(=O)NC[C@H](O)CN2CCc3c(ccc(OCc4cnco4)c3Cl)C2)cc(NC2CCC2)n1 [Compound 345]	50 to 500	≥ 5000	50 to 500	≥ 10000	1000 to 10000	–	A (a Ki ratio greater than or equal to 10 fold between the Ki in the presence of SAM and the Ki in the presence of MTA)	B* (an IC50 ratio greater than or equal to 3 fold but lower than 10 fold between the IC50 in the HAP1 MTAP-intact cell line and the HAP1 MTAP-deleted cell line)	–
CC(=O)N1CCC(Nc2cc(C(=O)NC[C@H](O)CN3CCc4c(ccc(OCc5ocnc5C)c4C)C3)cc(N3CCCCC3)n2)CC1 [Compound 595]	50 to 500	–	< 50	1000 to 10000	< 1000	500 to 5000	–	A* (an IC50 ratio greater than or equal to 10 fold between the IC50 in the HAP1 MTAP-intact cell line and the HAP1 MTAP-deleted cell line)	A (a Ki ratio greater than or equal to 10 fold between the Ki in the presence of SAM and the Ki in the presence of MTA)
Cc1ncoc1COc1cc(F)c2c(c1C)CCN(C[C@@H](O)CNC(=O)c1ccnc(NC3CCC3)c1)C2 [Compound 619, 2-(cyclobutylamino)-N-[(2S)-3-[8-fluoro-5-methyl-6-[(4-methyloxazol-5-yl)methoxy]-3,4-dihydro-1H-isoquinolin-2-yl]-2-hydroxy-propyl]pyridine-4-carboxamide]	50 to 500	–	50 to 500	≥ 10000	1000 to 10000	500 to 5000	–	C* (an IC50 ratio of less than 3 fold between the IC50 in the HAP1 MTAP-intact cell line and the HAP1 MTAP-deleted cell line)	–
COc1ccc(C(=O)N2CCc3cc(C(=O)NC[C@H](O)CN4CCc5cc(OCc6cnco6)ccc5C4)ccc3C2)cc1 [Compound 547, (S)—N-(2-hydroxy-3-(6-(oxazol-5-ylmethoxy)-3,4-dihydroisoquinolin-2(1H)-yl)propyl)-2-(4-methoxybenzoyl)-1,2,3,4-tetrahydroisoquinoline-6-carboxamide]	50 to 500	–	50 to 500	1000 to 10000	1000 to 10000	500 to 5000	–	C* (an IC50 ratio of less than 3 fold between the IC50 in the HAP1 MTAP-intact cell line and the HAP1 MTAP-deleted cell line)	A (a Ki ratio greater than or equal to 10 fold between the Ki in the presence of SAM and the Ki in the presence of MTA)
O=C(NC[C@H](O)CN1CCc2cc(OCc3cnco3)ccc2C1)c1ccnc(NC2CCN(C(=O)C3CC3)CC2)c1 [Compound 450, 2-[[1-(cyclopropanecarbonyl)-4-piperidyl]amino]-N-[(2S)-2-hydroxy-3-[6-(oxazol-5-ylmethoxy)-3,4-dihydro-1H-isoquinolin-2-yl]propyl]pyridine-4-carboxamide]	50 to 500	–	50 to 500	≥ 10000	< 1000	500 to 5000	–	A* (an IC50 ratio greater than or equal to 10 fold between the IC50 in the HAP1 MTAP-intact cell line and the HAP1 MTAP-deleted cell line)	A (a Ki ratio greater than or equal to 10 fold between the Ki in the presence of SAM and the Ki in the presence of MTA)
Cc1ncoc1COc1ccc2c(c1C)CCN(C[C@@H](O)CNC(=O)c1cc(NC3CCC3)ncn1)C2 [Compound 371, 6-(cyclobutylamino)-N-[(2S)-2-hydroxy-3-{5-methyl-6-[(4-methyl-1,3-oxazol-5-yl)methoxy]-1,2,3,4-tetrahydroisoquinolin-2-yl}propyl]pyrimidine-4-carboxamide]	500 to 5000	≥ 5000	50 to 500	≥ 10000	< 1000	–	A (a Ki ratio greater than or equal to 10 fold between the Ki in the presence of SAM and the Ki in the presence of MTA)	A* (an IC50 ratio greater than or equal to 10 fold between the IC50 in the HAP1 MTAP-intact cell line and the HAP1 MTAP-deleted cell line)	–
CC(C)Cc1cc(C(=O)NC[C@H](O)CN2CCc3cc(OCc4cnco4)ccc3C2)cc(NC2CCC2)n1 [Compound 307, (S)-2-(cyclobutylamino)-N-(2-hydroxy-3-(6-(oxazol-5-ylmethoxy)-3,4-dihydroisoquinolin-2(1H)-yl)propyl)-6-isobutylisonicotinamide]	500 to 5000	≥ 5000	50 to 500	1000 to 10000	< 1000	–	A (a Ki ratio greater than or equal to 10 fold between the Ki in the presence of SAM and the Ki in the presence of MTA)	C* (an IC50 ratio of less than 3 fold between the IC50 in the HAP1 MTAP-intact cell line and the HAP1 MTAP-deleted cell line)	–
